Measurements taken from ChEMBL document CHEMBL5584309, “Discovery of Novel Mcl-1 Inhibitors with a 3-Substituted-1H-indole-1-yl Moiety Binding to the P1-P3 Pockets to Induce Apoptosis in Acute Myeloid Leukemia Cells” (J Med Chem, 2024).
pIC50, pKi: −log10 of the molar value. Active and inactive are the calls of the source. No cut-off for these calls is given here.

Legend:
[1] = Metabolic stability in rat plasma assessed as compound remaining measured after 30 mins by LC-MS/MS analysis; type: ADME, cell-free; settings: read-out: Stability
[2] = system: THP-1; assay: Induction of apoptosis in human THP-1 cells assessed as cleaved PARP at 10 to 20 uM measured after 24 hrs by Western blot analysis; type: functional, cell-based; settings: dose 10-20 µM
[3] = Toxicity in NOD SCID mouse xenografted with human HL-60 cells assessed as change in spleen tissue at 80 mg/kg, ip once daily after 15 days of tumor inoculation treated for 12 days; type: organism-based; settings: in vivo, 288 h, time 12 day
[4] = Toxicity in NOD SCID mouse assessed as change in body weight at 25 mg/kg, ip administered for 7 consecutive days; type: organism-based; settings: in vivo, 168 h, time 7 day
[5] = Metabolic stability in rat liver microsomes assessed as compound remaining measured after 30 mins by LC-MS/MS analysis; type: ADME, Microsome; settings: read-out: Stability
[6] = system: HL-60; assay: In vivo antitumor activity against human HL-60 cells xenografted in female NOD SCID mouse assessed as reduction in tumor volume at 80 mg/kg, ip once daily after 15 days of tumor inoculation treated for 12 days; type: functional, organism-based; settings: time 12.0 day
[7] = system: HL-60; assay: Induction of apoptosis in human HL-60 cells assessed as early apoptotic cells at 10 uM measured after 24 hrs by Annexin V-FITC/propidium iodide double staining based assay (reference value: 3.37%); type: functional
[8] = biological target: T1, Induced myeloid leukemia cell differentiation protein Mcl-1 (Homo sapiens, UniProt Q07820); assay: Inhibition of Mcl-1 in human THP-1 cells assessed as dissociation of Bim from Mcl-1 at 20 uM measured after 24 hrs by Co-immunoprecipitation (Co-IP) assay; type: cell-based
T1 sequence (Q07820 whole entry): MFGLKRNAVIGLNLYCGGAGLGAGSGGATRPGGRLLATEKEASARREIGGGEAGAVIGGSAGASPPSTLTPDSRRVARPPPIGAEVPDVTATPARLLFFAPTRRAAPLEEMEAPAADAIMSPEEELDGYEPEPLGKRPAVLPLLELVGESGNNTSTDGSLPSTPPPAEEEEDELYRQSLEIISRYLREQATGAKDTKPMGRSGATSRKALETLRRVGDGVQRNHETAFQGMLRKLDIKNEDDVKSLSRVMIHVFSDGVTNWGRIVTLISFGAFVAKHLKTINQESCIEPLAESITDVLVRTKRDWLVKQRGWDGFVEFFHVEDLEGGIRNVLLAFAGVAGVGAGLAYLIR

[9] = biological target: T1, Induced myeloid leukemia cell differentiation protein Mcl-1; assay: Binding affinity to Mcl-1 (unknown origin) pre-incubated for 30 mins followed by addition FAM-peptide further incubated for 20 mins by fluorescence polarization-based binding assay; settings: read-out: Ki
[10] = Toxicity in NOD SCID mouse xenografted with human HL-60 cells assessed as change in kidney tissue at 80 mg/kg, ip once daily after 15 days of tumor inoculation treated for 12 days; type: organism-based; settings: in vivo
[11] = Metabolic stability in rat liver microsomes assessed as compound remaining measured after 45 mins by LC-MS/MS analysis; type: ADME, Microsome; settings: read-out: Stability
[12] = Tmax in Sprague-Dawley rat at 5 mg/kg, iv measured upto 24 hrs by LC-MS/MS analysis; type: ADME, organism-based; settings: in vivo
[13] = system: HL-60; assay: Induction of apoptosis in human HL-60 cells assessed as necrotic cells at 5 uM measured after 24 hrs by Annexin V-FITC/propidium iodide double staining based assay (reference value: 0.18%); type: functional
[14] = system: HL-60; assay: Antiproliferative activity against human HL-60 cells assessed as growth inhibition measured after 72 hrs by CCK-8 assay; type: functional, cell-based; settings: HL-60, 72 h
[15] = Cytotoxicity against rat H9c2 cells assessed as cell viability measured after 72 hrs by MTT assay; type: toxicity, cell-based
[16] = MRT (0 to t) in Sprague-Dawley rat at 5 mg/kg, iv measured upto 24 hrs by LC-MS/MS analysis; type: ADME, organism-based; settings: in vivo
[17] = Toxicity in NOD SCID mouse xenografted with human HL-60 cells assessed as change in lung tissue at 80 mg/kg, ip once daily after 15 days of tumor inoculation treated for 12 days; type: organism-based; settings: in vivo, 288 h, time 12 day
[18] = Toxicity in NOD SCID mouse xenografted with human THP-1 cells assessed as change in heart tissue at 40 to 80 mg/kg, ip once daily after 10 days of tumor inoculation treated for 14 days relative to control; type: organism-based; settings: in vivo, 336 h, dose 40-80 mg/kg, time 14 day
[19] = Toxicity in NOD SCID mouse xenografted with human HL-60 cells assessed as change in liver tissue at 80 mg/kg, ip once daily after 15 days of tumor inoculation treated for 12 days; type: organism-based; settings: in vivo, 288 h, time 12 day
[20] = system: HL-60; assay: Induction of apoptosis in human HL-60 cells assessed as viable cells at 2.5 uM measured after 24 hrs by Annexin V-FITC/propidium iodide double staining based assay (reference value: 92.68%); type: functional; settings: read-out: Activity
[21] = Toxicity in NOD SCID mouse xenografted with human THP-1 cells assessed as change in body weight at 40 to 80 mg/kg, ip once daily after 10 days of tumor inoculation treated for 14 days relative to control; type: organism-based; settings: in vivo, 336 h, dose 40-80 mg/kg, time 14 day
[22] = Cmax in Sprague-Dawley rat at 5 mg/kg, iv measured upto 24 hrs by LC-MS/MS analysis; type: ADME, organism-based; settings: in vivo
[23] = MRT (0 to infinity) in Sprague-Dawley rat at 5 mg/kg, iv measured upto 24 hrs by LC-MS/MS analysis; type: ADME, organism-based; settings: in vivo
[24] = Toxicity in NOD SCID mouse xenografted with human HL-60 cells assessed as change in heart tissue at 80 mg/kg, ip once daily after 15 days of tumor inoculation treated for 12 days; type: organism-based; settings: in vivo, 288 h, time 12 day
[25] = biological target: Apoptosis regulator Bcl-2 (Homo sapiens, UniProt P10415); assay: Binding affinity to Bcl-2 in human THP-1 cells assessed as dissociation of Bim from Bcl-2 at 20 uM measured after 24 hrs by Co-immunoprecipitation (Co-IP) assay; type: cell-based
Chain of Apoptosis regulator Bcl-2 (P10415 whole entry): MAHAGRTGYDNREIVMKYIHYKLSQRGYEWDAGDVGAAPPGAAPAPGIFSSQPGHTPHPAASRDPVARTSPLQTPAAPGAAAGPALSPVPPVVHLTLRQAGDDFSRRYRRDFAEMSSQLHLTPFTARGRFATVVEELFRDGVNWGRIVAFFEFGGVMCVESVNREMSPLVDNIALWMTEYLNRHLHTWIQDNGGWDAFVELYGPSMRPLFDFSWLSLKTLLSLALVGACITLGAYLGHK

[26] = Metabolic stability in rat liver microsomes assessed as compound remaining measured after 60 mins by LC-MS/MS analysis; type: ADME, Microsome; settings: read-out: Stability
[27] = Cytotoxicity against human AC16 cells assessed as change in intracellular calcium level at 20 uM measured after 24 hrs by Fluo-4 AM based flow cytometry; type: toxicity, cell-based; settings: ac16 [human hybrid]
[28] = Tmax in Sprague-Dawley rat at 20 mg/kg, ip measured upto 24 hrs by LC-MS/MS analysis; type: ADME, organism-based; settings: in vivo
[29] = Toxicity in NOD SCID mouse xenografted with human THP-1 cells assessed as change in liver tissue at 40 to 80 mg/kg, ip once daily after 10 days of tumor inoculation treated for 14 days relative to control; type: organism-based; settings: in vivo, 336 h, dose 40-80 mg/kg, time 14 day
[30] = Metabolic stability in rat liver microsomes assessed as compound remaining measured after 15 mins by LC-MS/MS analysis; type: ADME, Microsome; settings: read-out: Stability
[31] = Cmax in Sprague-Dawley rat at 20 mg/kg, ip measured upto 24 hrs by LC-MS/MS analysis; type: ADME, organism-based; settings: in vivo
[32] = Toxicity in NOD SCID mouse assessed as change in spleen tissue at 25 mg/kg, ip administered for 7 consecutive days by Hematoxylin-eosin (HE) staining based assay; type: organism-based; settings: in vivo, 168 h, time 7 day
[33] = system: HL-60; assay: Induction of apoptosis in human HL-60 cells assessed as viable cells at 10 uM measured after 24 hrs by Annexin V-FITC/propidium iodide double staining based assay (reference value: 92.68%); type: functional; settings: read-out: Activity
[34] = MRT (0 to t) in Sprague-Dawley rat at 20 mg/kg, ip measured upto 24 hrs by LC-MS/MS analysis; type: ADME, organism-based; settings: in vivo
[35] = Bioavailability in Sprague-Dawley rat at 20 mg/kg, ip measured upto 24 hrs by LC-MS/MS analysis; type: ADME, organism-based; settings: in vivo
[36] = Half life in Sprague-Dawley rat at 5 mg/kg, iv measured upto 24 hrs by LC-MS/MS analysis; type: ADME, organism-based; settings: in vivo
[37] = system: THP-1; assay: Induction of apoptosis in human THP-1 cells assessed as necrotic cells at 10 uM measured after 24 hrs by Annexin V-FITC/propidium iodide double staining based assay (reference value: 0.13%); type: functional
[38] = Half life in Sprague-Dawley rat at 20 mg/kg, ip measured upto 24 hrs by LC-MS/MS analysis; type: ADME, organism-based; settings: in vivo

In the case of Cc1cc(OCCCc2c(C(=O)O)n(CCN3CCOCC3)c3c(-c4ccccc4Cn4cc(CCN(CCN5CCOCC5)S(=O)(=O)c5ccc(F)cc5)c5ccccc54)cccc23)cc(C)c1Cl, the remaining at 0.5 h [1] was 87.7%, the Activity [2] was “Active” and the Activity [3] was “Non-Toxic”. For the same molecule, the Activity [4] was “Non-Toxic”, the remaining at 0.5 h [5] was 53% and the Activity [6] was “Active”. For the same molecule, the Activity [7] was 12.51%, the Activity [8] was “Active” and the pKi [9] was 7.62. For the same molecule, the Activity [10] was “Non-Toxic”, the remaining at 0.75 h [11] was 46% and the Tmax [12] was 4.98 min. It also gave an Activity [13] of 0.57%, a pIC50 [14] of 5.28 and an IC50 at 72 h [15] of 17.9 µM. The MRT last at 24 h [16] was 1.14 h, the Activity [17] was “Non-Toxic” and the Activity [18] was “Non-Toxic”. For the same molecule, the Activity [19] was “Non-Toxic”, the viability at 2.5 µM [20] was 92.8% and the Activity [21] was “Non-Toxic”. For the same molecule, the Cmax [22] was 46500 ng/mL, the MRT inf [23] was 1.3 h and the Activity [24] was “Non-Toxic”. For the same molecule, the Activity [25] was “inactive”, the remaining at 1 h [26] was 34.1% and the Activity [27] was “Non-Toxic”. The Tmax [28] was 5.33 h, the Activity [29] was “Non-Toxic” and the remaining at 0.25 h [30] was 67.4%. The Cmax [31] was 6240 ng/mL, the Activity [32] was “Non-Toxic” and the viability at 10 µM [33] was 41.2%. It also gave an MRT last at 24 h [34] of 6.51 h, a bioavailability [35] of 74% and a half-life [36] of 4.9 h. The Activity [37] was 0.14% and the half-life [38] was 4.1 h.

For Cc1nn(C)c(COc2ccc(N3CCN(S(=O)(=O)N(C)C)CC3)cc2)c1-c1cccc2c(CCCOc3cccc4ccccc34)c(C(=O)O)n(CCN3CCOCC3)c12, the remaining at 0.5 h [1] was 104%, the Activity [2] was “Active” and the remaining at 0.5 h [5] was 51.8%. The Activity [7] was 11.84%, the Activity [8] was “Active” and the pKi [9] was 7.92. For the same molecule, the remaining at 0.75 h [11] was 43.7%, the Activity [13] was 1.28% and the pIC50 [14] was 5.26. The viability at 2.5 µM [20] was 96.2%, the remaining at 1 h [26] was 31.6% and the remaining at 0.25 h [30] was 67.6%. It also gave a viability at 10 µM [33] of 33% and an Activity [37] of 0.09%.
